Active and inactive are the calls of the source. The rule behind the calls is not given here.
Assays:
B16-F10 [1] = experiment: Antitumor activity against mouse B16F10 cells […] in C57BL/6 mouse assessed as reduction of tumor size at 100 ug administered as intratumorally for 3 days; format: functional, cell-based
NIH3T3 = experiment: Cytotoxicity against mouse NIH/3T3 cells at 250 uM after 24 to 48 hrs by MTT assay; format: cell-based; conditions: nih3t3, 250 µM
B16-F10 [2] = experiment: Cytotoxicity against mouse B16F10 cells at 250 uM after 24 to 48 hrs by MTT assay; format: functional, cell-based
[3] = Prodrug activation mediated by mushroom tyrosinase assessed as 4-[bis-(2-chloroethyl) amino]benzoic cid formation up to 120 mins by TLC, HPLC or MS analysis; conditions: agaricus bisporus, 2 h
[4] = Prodrug activation mediated by mushroom tyrosinase assessed as 5,6-dihydroxy-1H-indazol-1-yl 4-[bis-(2-chloroethyl)amino]benzoate formation up to 120 mins by UV-Vis spectroscopy; conditions: agaricus bisporus, 2 h
[5] = Prodrug activation mediated by mushroom tyrosinase assessed as N-{4-[bis-(2-chloroethyl)amino]benzoyl}-N''-(4-hydroxybenzylidene)hydrazine formation up to 120 mins by TLC, HPLC or MS analysis; conditions: agaricus bisporus, 2 h
[6] = Cytotoxicity against mouse HECa10 cells at 250 uM after 24 to 48 hrs by MTT assay; format: cell-based

Compound	Activity (B16-F10 [1])	Activity (NIH3T3)	Activity (B16-F10 [2])	Drug metabolism [3]	Drug metabolism [4]	Drug metabolism [5]	Activity [6]
N[C@@H](Cc1ccc(N(CCCl)CCCl)cc1)C(=O)O	Active	–	–	–	–	–	–
O=C(NNCc1ccc(O)cc1)c1ccc(N(CCCl)CCCl)cc1	Active	Toxic	Active	Not Active	Active	Active	Toxic

From ChEMBL document CHEMBL3098120, “Synthesis and analysis of activity of a potential anti-melanoma prodrug with a hydrazine linker” (Eur J Med Chem, 2014)
